Data taken from ChEMBL document CHEMBL4507296 (2021).

Tests used:
[1] = biological target: Myotonin-protein kinase (Homo sapiens) (UniProt Q09013); conditions: Compound concentration 1000.0 nM
[2] = biological target: Mitogen-activated protein kinase 13 (Homo sapiens) (UniProt O15264); conditions: Compound concentration 1000.0 nM
[3] = biological target: Focal adhesion kinase 1 (Homo sapiens) (UniProt Q05397); conditions: Compound concentration 1000.0 nM
[4] = biological target: Kappa-type opioid receptor (Rattus norvegicus) (UniProt P34975); assay: k-Opioid (rat) CEREP ligand profiling; conditions: Compound concentration 10.0 uM
[5] = biological target: Tyrosine-protein kinase Blk (Homo sapiens) (UniProt P51451); conditions: Compound concentration 1000.0 nM
[6] = system: Phosphatidylinositol 4,5-bisphosphate 3-kinase catalytic subunit alpha isoform (Homo sapiens), P42336 [H1047Y]; conditions: Compound concentration 1000.0 nM
[7] = biological target: Death-associated protein kinase 3 (Homo sapiens) (UniProt O43293); conditions: Compound concentration 1000.0 nM
[8] = biological target: Dual specificity testis-specific protein kinase 1 (Homo sapiens) (UniProt Q15569); conditions: Compound concentration 1000.0 nM
[9] = biological target: Dual specificity mitogen-activated protein kinase kinase 1 (Homo sapiens) (UniProt Q02750); conditions: Compound concentration 1000.0 nM
[10] = biological target: Serine/threonine-protein kinase PAK 5 (Homo sapiens) (UniProt Q9P286); conditions: Compound concentration 1000.0 nM
[11] = biological target: Ribosomal protein S6 kinase alpha-4 (Homo sapiens) (UniProt O75676); conditions: Compound concentration 1000.0 nM
[12] = biological target: Activated CDC42 kinase 1 (Homo sapiens) (UniProt Q07912); conditions: Compound concentration 1000.0 nM
[13] = biological target: Fibroblast growth factor receptor 3 (Homo sapiens) (UniProt P22607); conditions: Compound concentration 1000.0 nM
[14] = biological target: Serine/threonine-protein kinase tousled-like 1 (Homo sapiens) (UniProt Q9UKI8); conditions: Compound concentration 1000.0 nM
[15] = biological target: SRSF protein kinase 3 (Homo sapiens) (UniProt Q9UPE1); conditions: Compound concentration 1000.0 nM
[16] = biological target: Muscle, skeletal receptor tyrosine-protein kinase (Homo sapiens) (UniProt O15146); conditions: Compound concentration 1000.0 nM
[17] = biological target: Casein kinase I isoform epsilon (Homo sapiens) (UniProt P49674); conditions: Compound concentration 1000.0 nM
[18] = species: Rattus norvegicus; conditions: Compound concentration 10.0 uM
[19] = biological target: Receptor-type tyrosine-protein kinase FLT3 (Homo sapiens) (UniProt P36888); conditions: Compound concentration 1000.0 nM
[20] = biological target: 5-hydroxytryptamine receptor 1D (Homo sapiens) (UniProt P28221); conditions: Compound concentration 10.0 uM
[21] = biological target: 5'-AMP-activated protein kinase catalytic subunit alpha-2 (Homo sapiens) (UniProt P54646); conditions: Compound concentration 1000.0 nM
[22] = biological target: Serine/threonine-protein kinase WNK1 (Homo sapiens) (UniProt Q9H4A3); conditions: Compound concentration 1000.0 nM
[23] = biological target: T1, Alpha-2B adrenergic receptor (Homo sapiens) (UniProt P18089); assay: Adrenergic a2b (human) CEREP ligand profiling; conditions: Compound concentration 10.0 uM
T1 sequence (whole entry): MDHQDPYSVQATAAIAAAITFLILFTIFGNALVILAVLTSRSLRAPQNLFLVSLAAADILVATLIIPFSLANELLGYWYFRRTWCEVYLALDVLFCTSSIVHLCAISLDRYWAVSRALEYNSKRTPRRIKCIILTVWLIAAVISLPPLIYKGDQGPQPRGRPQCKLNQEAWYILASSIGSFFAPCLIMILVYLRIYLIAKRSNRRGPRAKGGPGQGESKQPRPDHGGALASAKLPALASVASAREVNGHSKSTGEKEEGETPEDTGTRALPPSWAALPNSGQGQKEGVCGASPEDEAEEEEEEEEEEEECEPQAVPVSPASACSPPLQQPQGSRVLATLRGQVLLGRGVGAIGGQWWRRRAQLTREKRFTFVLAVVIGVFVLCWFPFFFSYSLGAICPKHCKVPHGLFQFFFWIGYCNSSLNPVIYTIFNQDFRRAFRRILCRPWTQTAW

[24] = biological target: Leucine-rich repeat serine/threonine-protein kinase 2 (Homo sapiens) (UniProt Q5S007); conditions: Compound concentration 1000.0 nM
[25] = biological target: SRSF protein kinase 2 (Homo sapiens) (UniProt P78362); conditions: Compound concentration 1000.0 nM
[26] = biological target: Serine/threonine-protein kinase SBK1 (Homo sapiens) (UniProt Q52WX2); conditions: Compound concentration 1000.0 nM
[27] = biological target: Muscarinic acetylcholine receptor M3 (Homo sapiens) (UniProt P20309); assay: Muscarinic M3 (human) CEREP ligand profiling; conditions: Compound concentration 10.0 uM
[28] = biological target: Non-receptor tyrosine-protein kinase TNK1 (Homo sapiens) (UniProt Q13470); conditions: Compound concentration 1000.0 nM
[29] = biological target: Cyclin-dependent kinase 8 (Homo sapiens) (UniProt P49336); conditions: Compound concentration 1000.0 nM
[30] = biological target: Hepatocyte growth factor receptor (Homo sapiens) (UniProt P08581); conditions: Compound concentration 1000.0 nM
[31] = biological target: Tyrosine-protein kinase FRK (Homo sapiens) (UniProt P42685); conditions: Compound concentration 1000.0 nM
[32] = biological target: D(4) dopamine receptor (Homo sapiens) (UniProt P21917); conditions: Compound concentration 10.0 uM
[33] = biological target: Serine/threonine-protein kinase BRSK1 (Homo sapiens) (UniProt Q8TDC3); conditions: Compound concentration 1000.0 nM
[34] = biological target: Tyrosine-protein kinase JAK1 (Homo sapiens) (UniProt P23458); conditions: Compound concentration 1000.0 nM
[35] = biological target: Bone morphogenetic protein receptor type-2 (Homo sapiens) (UniProt Q13873); conditions: Compound concentration 1000.0 nM
[36] = biological target: Phosphatidylinositol 4-phosphate 5-kinase type-1 alpha (Homo sapiens) (UniProt Q99755); conditions: Compound concentration 1000.0 nM
[37] = biological target: Phosphorylase b kinase gamma catalytic chain, skeletal muscle/heart isoform (Homo sapiens) (UniProt Q16816); conditions: Compound concentration 1000.0 nM
[38] = system: Receptor-type tyrosine-protein kinase FLT3 (Homo sapiens), P36888 [D835V]; conditions: Compound concentration 1000.0 nM
[39] = biological target: Serine/threonine-protein kinase D1 (Homo sapiens) (UniProt Q15139); conditions: Compound concentration 1000.0 nM
[40] = biological target: Ribosomal protein S6 kinase alpha-5 (Homo sapiens) (UniProt O75582); conditions: Compound concentration 1000.0 nM

Hepatocyte growth factor receptor (Homo sapiens), sequence (P08581 whole entry): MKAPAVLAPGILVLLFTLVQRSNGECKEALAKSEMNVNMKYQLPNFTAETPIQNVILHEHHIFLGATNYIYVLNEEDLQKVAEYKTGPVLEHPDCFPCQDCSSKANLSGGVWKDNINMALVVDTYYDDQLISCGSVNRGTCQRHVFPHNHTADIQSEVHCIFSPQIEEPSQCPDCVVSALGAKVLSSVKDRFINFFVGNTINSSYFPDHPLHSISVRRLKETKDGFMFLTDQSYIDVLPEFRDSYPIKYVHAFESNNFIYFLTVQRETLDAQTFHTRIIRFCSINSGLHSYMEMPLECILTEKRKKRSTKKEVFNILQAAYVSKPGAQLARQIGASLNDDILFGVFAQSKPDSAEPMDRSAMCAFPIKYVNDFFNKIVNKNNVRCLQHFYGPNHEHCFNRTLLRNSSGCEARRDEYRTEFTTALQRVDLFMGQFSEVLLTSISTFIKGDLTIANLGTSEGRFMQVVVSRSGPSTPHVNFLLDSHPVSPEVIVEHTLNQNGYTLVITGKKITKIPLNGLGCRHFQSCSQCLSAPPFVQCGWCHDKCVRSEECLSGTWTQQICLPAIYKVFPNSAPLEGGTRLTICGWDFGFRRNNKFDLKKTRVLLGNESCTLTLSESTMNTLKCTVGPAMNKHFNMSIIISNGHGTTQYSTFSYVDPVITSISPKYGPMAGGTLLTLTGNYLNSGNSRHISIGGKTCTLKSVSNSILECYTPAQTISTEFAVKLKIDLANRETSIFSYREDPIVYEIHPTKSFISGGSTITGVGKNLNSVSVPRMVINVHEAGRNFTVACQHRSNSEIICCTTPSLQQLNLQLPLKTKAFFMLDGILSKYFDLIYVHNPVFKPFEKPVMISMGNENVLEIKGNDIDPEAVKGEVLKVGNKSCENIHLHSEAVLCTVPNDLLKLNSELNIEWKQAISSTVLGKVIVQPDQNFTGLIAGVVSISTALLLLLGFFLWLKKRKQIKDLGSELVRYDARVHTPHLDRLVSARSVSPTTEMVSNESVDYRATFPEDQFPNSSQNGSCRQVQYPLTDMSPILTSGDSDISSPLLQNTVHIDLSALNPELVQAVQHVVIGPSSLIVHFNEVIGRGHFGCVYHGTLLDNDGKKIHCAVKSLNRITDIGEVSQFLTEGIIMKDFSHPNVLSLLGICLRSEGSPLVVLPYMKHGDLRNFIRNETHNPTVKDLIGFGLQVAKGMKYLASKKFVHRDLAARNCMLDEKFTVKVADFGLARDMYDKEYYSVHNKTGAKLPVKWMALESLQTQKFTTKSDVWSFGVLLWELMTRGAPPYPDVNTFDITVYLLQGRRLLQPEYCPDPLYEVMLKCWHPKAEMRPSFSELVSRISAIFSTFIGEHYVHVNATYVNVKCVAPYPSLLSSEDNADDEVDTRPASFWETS
Leucine-rich repeat serine/threonine-protein kinase 2 (Homo sapiens), sequence (Q5S007 whole entry): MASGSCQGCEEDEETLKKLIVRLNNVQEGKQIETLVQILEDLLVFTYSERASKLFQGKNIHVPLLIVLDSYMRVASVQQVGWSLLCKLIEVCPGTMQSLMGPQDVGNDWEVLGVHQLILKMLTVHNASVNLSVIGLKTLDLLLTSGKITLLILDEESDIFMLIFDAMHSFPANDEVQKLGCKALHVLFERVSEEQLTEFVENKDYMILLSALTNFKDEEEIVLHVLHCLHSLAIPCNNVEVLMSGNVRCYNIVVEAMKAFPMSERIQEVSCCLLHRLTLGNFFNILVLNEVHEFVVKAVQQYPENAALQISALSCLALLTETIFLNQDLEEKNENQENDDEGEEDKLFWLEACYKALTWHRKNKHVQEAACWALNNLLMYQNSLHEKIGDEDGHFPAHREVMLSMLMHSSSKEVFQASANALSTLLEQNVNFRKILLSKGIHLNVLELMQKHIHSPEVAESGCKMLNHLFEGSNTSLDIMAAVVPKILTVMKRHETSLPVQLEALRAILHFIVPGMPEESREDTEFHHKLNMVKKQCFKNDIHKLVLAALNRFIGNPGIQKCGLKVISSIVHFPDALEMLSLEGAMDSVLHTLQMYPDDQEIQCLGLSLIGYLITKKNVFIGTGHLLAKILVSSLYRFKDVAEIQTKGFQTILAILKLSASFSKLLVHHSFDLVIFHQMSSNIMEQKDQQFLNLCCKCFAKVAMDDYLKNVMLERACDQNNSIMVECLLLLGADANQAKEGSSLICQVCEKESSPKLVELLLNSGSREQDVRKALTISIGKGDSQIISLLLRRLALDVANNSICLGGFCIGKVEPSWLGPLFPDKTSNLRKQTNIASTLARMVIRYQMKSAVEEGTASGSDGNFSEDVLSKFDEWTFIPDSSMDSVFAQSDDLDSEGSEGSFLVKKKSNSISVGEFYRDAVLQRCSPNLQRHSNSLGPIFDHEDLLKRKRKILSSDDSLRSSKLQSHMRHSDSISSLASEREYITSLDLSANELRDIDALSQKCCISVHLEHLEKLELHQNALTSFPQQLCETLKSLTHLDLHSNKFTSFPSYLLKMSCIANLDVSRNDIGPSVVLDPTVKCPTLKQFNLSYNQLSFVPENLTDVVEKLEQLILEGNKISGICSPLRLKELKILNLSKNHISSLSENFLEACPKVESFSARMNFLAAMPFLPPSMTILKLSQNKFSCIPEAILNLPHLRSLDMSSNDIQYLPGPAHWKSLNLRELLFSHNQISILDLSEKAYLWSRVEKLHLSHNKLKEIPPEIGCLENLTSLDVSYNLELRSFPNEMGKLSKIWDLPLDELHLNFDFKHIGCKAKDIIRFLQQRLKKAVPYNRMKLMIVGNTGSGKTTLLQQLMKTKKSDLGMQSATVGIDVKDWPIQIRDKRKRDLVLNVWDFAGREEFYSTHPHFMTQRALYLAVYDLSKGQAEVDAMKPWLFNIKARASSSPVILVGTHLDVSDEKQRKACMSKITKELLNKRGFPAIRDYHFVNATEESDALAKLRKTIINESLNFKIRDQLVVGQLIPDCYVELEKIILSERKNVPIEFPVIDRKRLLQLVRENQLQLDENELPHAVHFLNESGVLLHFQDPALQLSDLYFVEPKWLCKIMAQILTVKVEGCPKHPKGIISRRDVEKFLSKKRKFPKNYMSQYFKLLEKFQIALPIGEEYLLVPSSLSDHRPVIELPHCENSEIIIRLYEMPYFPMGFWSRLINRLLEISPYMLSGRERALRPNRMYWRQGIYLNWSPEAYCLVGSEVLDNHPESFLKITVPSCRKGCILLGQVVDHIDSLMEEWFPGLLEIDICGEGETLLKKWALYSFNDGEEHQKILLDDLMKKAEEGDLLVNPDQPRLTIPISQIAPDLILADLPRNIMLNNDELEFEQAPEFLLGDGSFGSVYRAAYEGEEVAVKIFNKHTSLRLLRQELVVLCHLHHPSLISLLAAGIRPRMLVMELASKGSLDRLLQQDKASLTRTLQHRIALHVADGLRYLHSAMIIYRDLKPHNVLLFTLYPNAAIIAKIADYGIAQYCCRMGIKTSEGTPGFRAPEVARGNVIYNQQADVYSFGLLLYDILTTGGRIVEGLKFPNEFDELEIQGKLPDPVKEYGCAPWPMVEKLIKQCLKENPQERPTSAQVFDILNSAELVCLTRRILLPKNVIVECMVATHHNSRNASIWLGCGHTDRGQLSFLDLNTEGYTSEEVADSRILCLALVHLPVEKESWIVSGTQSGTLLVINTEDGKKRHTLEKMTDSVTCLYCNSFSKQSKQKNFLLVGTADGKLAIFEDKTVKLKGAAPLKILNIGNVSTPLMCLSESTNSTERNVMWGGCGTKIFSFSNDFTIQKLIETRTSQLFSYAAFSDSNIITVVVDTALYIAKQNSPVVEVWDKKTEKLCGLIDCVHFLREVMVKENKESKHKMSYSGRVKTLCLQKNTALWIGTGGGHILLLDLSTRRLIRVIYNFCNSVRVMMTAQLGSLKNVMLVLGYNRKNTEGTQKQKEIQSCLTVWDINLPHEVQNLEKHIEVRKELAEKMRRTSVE
Myotonin-protein kinase (Homo sapiens), sequence (Q09013 whole entry): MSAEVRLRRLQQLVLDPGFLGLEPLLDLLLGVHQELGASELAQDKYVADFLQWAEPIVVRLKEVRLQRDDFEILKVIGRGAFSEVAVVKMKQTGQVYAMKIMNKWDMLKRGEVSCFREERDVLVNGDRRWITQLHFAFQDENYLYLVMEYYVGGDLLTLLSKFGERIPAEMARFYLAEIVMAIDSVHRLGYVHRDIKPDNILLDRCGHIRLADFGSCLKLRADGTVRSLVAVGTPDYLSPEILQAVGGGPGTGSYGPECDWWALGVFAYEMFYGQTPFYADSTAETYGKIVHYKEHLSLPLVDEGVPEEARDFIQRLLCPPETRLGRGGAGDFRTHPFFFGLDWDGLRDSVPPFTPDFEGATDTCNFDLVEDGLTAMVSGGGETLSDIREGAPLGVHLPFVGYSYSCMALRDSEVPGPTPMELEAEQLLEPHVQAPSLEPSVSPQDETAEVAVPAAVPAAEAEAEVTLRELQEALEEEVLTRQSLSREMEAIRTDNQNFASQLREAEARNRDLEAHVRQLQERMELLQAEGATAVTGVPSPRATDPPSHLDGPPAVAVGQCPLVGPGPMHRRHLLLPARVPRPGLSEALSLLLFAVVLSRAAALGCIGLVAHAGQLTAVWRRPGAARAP
SRSF protein kinase 3 (Homo sapiens), sequence (Q9UPE1 whole entry): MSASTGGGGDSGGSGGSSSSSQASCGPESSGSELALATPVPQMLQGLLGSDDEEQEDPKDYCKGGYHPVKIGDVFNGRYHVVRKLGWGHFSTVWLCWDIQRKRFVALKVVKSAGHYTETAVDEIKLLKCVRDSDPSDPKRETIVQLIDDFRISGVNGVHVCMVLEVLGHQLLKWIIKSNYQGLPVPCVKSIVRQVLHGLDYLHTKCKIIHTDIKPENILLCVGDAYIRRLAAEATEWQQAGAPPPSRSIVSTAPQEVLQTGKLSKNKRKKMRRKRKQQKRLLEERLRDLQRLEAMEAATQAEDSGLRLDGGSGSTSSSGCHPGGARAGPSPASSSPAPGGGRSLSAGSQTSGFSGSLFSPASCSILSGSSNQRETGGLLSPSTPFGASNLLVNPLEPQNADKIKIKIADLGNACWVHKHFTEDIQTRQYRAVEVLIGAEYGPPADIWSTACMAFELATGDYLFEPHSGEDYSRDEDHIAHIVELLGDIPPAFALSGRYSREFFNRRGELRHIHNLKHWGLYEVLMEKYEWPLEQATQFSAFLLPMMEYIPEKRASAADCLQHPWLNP

For `C[C@H](c1ccc(F)cc1)N(Cc1cccc(C(=O)O)c1)C(=O)c1cnc2ccccc2c1` [PF-05105679], the residual activity [1] was 88%, the residual activity [2] was 95% and the residual activity [3] was 93%. For the same compound, the inhibition [4] was 20%, the residual activity [5] was 88% and the residual activity [6] was 100%. The residual activity [7] was 100%, the residual activity [8] was 100% and the residual activity [9] was 100%. It also gave a residual activity [10] of 93%, a residual activity [11] of 100% and a residual activity [12] of 100%. The residual activity [13] was 82%, the residual activity [14] was 97% and the residual activity [15] was 92%. It also gave a residual activity [16] of 76%, a residual activity [17] of 100% and an inhibition [18] of 70%. It also gave a residual activity [19] of 100%, an inhibition [20] of -1.68% and a residual activity [21] of 100%. It also gave a residual activity [22] of 100%, an inhibition [23] of 21% and a residual activity [24] of 100%. The residual activity [25] was 98%, the residual activity [26] was 92% and the inhibition [27] was 21%. For the same compound, the residual activity [28] was 100%, the residual activity [29] was 100% and the residual activity [30] was 100%. The residual activity [31] was 77%, the inhibition [32] was 10.1% and the residual activity [33] was 100%. The residual activity [34] was 100%, the residual activity [35] was 75% and the residual activity [36] was 100%. The residual activity [37] was 88%, the residual activity [38] was 98% and the residual activity [39] was 100%. For the same compound, the residual activity [40] was 98%.
